Source: patent US20230120564A1, “PYRIDO[3,4-D]PYRIMIDINE DERIVATIVE AND THERAPEUTIC PHARMACEUTIC COMPOSITION COMPRISING SAME” (KOREA INSTITUTE OF SCIENCE AND TECHNOLOGY, priority 2020, published 2023)

Columns and labels:
[1] = target: RIPK4 (Homo sapiens, UniProt P57078); assay: full kinase panel biochemical assay; settings: single concentration of 1 μM; read-out: percent inhibition of RIPK4
Experimental: (§1) In order to measure the protein kinase inhibitory activity (% inhibition) of the compound of the present invention, biochemical assay was performed in the full kinase panel. As a test compound, Compound No. 4 was used. The percent inhibition of each kinase when treated with the test compound at a single concentration of 1 μM was measured, and the residual enzyme activity values (%) of the kinases were calculated. Kinases whose calculated residual enzyme activity values (%) was 30% or less (i.e., kinases inhibited by 70% or more) are as follows: ABL1, ABL2/ARG, ACK1, ARAF, BLK, BMX/ETK, BRAF, BRK, BTK, c-Kit, c-Src, CSK, DDR1, DDR2, EPHA1, EPHA2, EPHA3, EPHA4, EPHA5, EPHA6, EPHA7, EPHA8, EPHB1, EPHB2, EPHB3, EPHB4, ERBB2/HER2, ERBB4/HER4, FGFR1, FGFR2, FGFR3, FGR, FLT1/VEGFR1, FLT4/VEGFR3, FMS, FRK/PTK5, FYN, GCK/MAP4K2, HCK, HGK/MAP4K4, JAK1, JAK2, KDR/VEGFR2, KHS/MAP4K5, LCK, LYN, LYN B, MEKK1, MLK4, MYLK3, NEK5, P38a/MAPK14, P38b/MAPK11, PDGFRa, PDGFRb, PEAK1, RET, RIPK2, RIPK4, SIK2, SRPK1, TAOK3/JIK, TLK1, TNK1, TXK, TYK2, YES/YES1, YSK4/MAP3K19, and ZAK/MLTK.

[2] = target: SRPK1 (Homo sapiens, UniProt Q96SB4); assay: full kinase panel biochemical assay; settings: single concentration of 1 μM; read-out: percent inhibition of SRPK1
Experimental: as §1

[3] = target: c-Kit (Homo sapiens, UniProt P10721); assay: full kinase panel biochemical assay; settings: single concentration of 1 μM; read-out: percent inhibition of c-Kit
Experimental: as §1

[4] = target: EPHA8 (Homo sapiens, UniProt P29322); assay: full kinase panel biochemical assay; settings: single concentration of 1 μM; read-out: percent inhibition of EPHA8
Experimental: as §1

[5] = target: EPHB4 (Homo sapiens, UniProt P54760); assay: full kinase panel biochemical assay; settings: single concentration of 1 μM; read-out: percent inhibition of EPHB4
Experimental: as §1

[6] = target: FRK/PTK5 (Homo sapiens, UniProt P42685); assay: full kinase panel biochemical assay; settings: single concentration of 1 μM; read-out: percent inhibition of FRK/PTK5
Experimental: as §1

[7] = target: LCK (Homo sapiens, UniProt P06239); assay: full kinase panel biochemical assay; settings: single concentration of 1 μM; read-out: percent inhibition of LCK
Experimental: as §1

[8] = target: BTK (Homo sapiens, UniProt Q06187); assay: full kinase panel biochemical assay; settings: single concentration of 1 μM; read-out: percent inhibition of BTK
Experimental: as §1

[9] = target: EPHA1 (Homo sapiens, UniProt P21709); assay: full kinase panel biochemical assay; settings: single concentration of 1 μM; read-out: percent inhibition of EPHA1
Experimental: as §1

[10] = target: ABL2/ARG (Homo sapiens, UniProt P42684); assay: full kinase panel biochemical assay; settings: single concentration of 1 μM; read-out: percent inhibition of ABL2/ARG
Experimental: as §1

[11] = target: ERBB2/HER2 (Homo sapiens, UniProt P04626); assay: full kinase panel biochemical assay; settings: single concentration of 1 μM; read-out: percent inhibition of ERBB2/HER2
Experimental: as §1

[12] = target: ARAF (Homo sapiens, UniProt P10398); assay: full kinase panel biochemical assay; settings: single concentration of 1 μM; read-out: percent inhibition of ARAF
Experimental: as §1

[13] = target: EPHB2 (Homo sapiens, UniProt P29323); assay: full kinase panel biochemical assay; settings: single concentration of 1 μM; read-out: percent inhibition of EPHB2
Experimental: as §1

[14] = target: PDGFRb (Homo sapiens, UniProt P09619); assay: full kinase panel biochemical assay; settings: single concentration of 1 μM; read-out: percent inhibition of PDGFRb
Experimental: as §1

[15] = target: ACK1 (Homo sapiens, UniProt Q07912); assay: Kinase inhibitory activity, IC50; type: biochemical
Experimental: (§2) The inhibitory activities of the compounds of the present invention against two kinases, GCK and ACK1, were measured, and the IC50 values thereof were calculated. As a control, the following compound GNF7 was used.

[16] = target: T1, GCK (Homo sapiens, UniProt Q12851); assay: Kinase inhibitory activity, IC50; type: biochemical
T1 sequence (Q12851 1-820): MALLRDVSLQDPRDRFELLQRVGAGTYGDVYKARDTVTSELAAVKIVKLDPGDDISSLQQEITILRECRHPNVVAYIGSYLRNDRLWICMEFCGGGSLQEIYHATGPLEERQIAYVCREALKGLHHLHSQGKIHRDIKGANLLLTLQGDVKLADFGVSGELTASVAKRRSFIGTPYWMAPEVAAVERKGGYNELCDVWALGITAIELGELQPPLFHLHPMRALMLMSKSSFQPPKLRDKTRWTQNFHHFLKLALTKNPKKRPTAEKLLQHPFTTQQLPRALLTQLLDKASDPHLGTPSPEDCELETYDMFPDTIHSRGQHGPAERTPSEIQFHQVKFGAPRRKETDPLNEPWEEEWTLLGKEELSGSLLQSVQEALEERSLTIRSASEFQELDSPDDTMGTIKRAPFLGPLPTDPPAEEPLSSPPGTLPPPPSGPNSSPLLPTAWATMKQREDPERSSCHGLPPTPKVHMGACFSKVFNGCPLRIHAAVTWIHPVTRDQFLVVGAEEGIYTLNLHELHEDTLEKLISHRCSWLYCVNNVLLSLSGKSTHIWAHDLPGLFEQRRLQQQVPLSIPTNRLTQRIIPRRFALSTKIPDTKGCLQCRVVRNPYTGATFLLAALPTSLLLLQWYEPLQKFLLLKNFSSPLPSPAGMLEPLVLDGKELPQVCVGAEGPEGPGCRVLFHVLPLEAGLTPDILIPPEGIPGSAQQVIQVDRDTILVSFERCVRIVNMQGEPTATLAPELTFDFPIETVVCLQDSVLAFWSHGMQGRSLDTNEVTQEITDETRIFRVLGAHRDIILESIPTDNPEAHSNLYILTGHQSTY
Experimental: as §2

PDGFRb, sequence (P09619 33-1106): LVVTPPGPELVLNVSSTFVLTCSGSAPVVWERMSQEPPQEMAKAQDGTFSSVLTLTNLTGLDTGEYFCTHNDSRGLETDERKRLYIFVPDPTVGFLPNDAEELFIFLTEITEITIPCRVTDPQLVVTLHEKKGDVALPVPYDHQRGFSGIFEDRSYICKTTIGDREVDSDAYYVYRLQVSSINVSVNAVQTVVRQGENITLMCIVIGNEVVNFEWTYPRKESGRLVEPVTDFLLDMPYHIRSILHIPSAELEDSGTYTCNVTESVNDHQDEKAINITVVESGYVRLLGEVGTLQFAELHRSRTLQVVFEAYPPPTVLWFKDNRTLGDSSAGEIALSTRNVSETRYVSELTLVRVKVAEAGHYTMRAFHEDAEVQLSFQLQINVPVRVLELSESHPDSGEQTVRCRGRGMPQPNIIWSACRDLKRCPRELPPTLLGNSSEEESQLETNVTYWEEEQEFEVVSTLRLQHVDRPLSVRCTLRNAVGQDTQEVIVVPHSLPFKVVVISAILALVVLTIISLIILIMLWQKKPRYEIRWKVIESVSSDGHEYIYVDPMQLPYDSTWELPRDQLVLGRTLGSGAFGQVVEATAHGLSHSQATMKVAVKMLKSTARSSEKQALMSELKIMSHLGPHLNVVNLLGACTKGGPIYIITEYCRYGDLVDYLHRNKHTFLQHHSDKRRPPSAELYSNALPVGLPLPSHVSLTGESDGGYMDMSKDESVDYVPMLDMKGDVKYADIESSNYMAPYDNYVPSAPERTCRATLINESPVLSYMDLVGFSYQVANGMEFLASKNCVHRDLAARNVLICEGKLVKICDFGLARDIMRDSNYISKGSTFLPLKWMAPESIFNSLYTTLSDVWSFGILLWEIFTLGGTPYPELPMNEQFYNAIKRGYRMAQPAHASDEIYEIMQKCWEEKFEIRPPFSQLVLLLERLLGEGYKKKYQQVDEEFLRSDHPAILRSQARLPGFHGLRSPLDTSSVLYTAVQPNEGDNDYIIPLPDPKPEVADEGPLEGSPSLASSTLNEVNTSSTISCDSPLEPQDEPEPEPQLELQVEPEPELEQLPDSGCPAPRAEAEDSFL
BTK, sequence (Q06187 whole entry): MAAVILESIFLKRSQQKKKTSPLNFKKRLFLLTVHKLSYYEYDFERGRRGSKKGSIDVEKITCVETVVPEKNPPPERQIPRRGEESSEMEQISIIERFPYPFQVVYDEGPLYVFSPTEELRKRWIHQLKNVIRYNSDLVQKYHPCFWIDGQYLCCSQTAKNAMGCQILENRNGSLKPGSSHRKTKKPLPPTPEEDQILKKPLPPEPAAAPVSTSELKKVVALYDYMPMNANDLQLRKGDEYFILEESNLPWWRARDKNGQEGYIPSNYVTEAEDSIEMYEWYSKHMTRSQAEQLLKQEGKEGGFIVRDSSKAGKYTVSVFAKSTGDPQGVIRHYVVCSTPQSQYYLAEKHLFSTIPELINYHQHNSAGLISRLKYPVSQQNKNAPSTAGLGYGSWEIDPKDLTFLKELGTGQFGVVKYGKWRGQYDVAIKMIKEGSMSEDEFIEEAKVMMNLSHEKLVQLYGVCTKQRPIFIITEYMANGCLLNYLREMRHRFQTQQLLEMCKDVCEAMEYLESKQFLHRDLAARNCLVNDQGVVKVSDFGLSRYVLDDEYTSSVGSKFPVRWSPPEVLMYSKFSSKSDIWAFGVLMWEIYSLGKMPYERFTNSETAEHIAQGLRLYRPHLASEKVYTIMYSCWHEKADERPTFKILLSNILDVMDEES
ABL2/ARG, sequence (P42684 whole entry): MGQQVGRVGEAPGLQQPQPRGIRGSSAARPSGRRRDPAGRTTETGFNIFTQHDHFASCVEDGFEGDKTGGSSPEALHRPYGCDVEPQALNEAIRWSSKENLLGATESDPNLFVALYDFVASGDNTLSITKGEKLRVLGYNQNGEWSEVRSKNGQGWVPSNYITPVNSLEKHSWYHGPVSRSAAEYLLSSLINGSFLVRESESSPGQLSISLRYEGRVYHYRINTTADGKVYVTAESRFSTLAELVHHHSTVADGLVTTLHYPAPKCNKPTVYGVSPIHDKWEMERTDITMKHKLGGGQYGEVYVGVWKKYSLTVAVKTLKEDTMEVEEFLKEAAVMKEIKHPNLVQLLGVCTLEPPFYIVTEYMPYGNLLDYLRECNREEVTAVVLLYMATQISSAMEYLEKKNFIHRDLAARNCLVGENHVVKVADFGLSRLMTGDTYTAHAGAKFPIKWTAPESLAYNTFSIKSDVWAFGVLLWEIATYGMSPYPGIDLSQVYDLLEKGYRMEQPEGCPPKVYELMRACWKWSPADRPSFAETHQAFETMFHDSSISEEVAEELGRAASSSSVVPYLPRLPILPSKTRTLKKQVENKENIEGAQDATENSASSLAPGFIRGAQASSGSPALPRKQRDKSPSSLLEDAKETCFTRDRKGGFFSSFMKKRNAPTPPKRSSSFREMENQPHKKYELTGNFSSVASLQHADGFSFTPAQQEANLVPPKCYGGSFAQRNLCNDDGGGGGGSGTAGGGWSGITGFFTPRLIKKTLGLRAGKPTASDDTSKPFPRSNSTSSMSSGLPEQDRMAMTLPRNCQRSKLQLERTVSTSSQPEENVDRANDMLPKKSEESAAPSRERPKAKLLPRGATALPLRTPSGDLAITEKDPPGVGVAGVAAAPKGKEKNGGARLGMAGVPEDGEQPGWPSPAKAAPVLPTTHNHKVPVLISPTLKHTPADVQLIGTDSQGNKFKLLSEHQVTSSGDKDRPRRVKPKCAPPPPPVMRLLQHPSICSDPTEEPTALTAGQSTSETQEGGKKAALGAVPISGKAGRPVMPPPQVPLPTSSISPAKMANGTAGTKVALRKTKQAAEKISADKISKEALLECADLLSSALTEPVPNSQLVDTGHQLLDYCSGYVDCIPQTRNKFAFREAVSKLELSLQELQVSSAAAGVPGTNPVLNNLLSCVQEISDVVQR
c-Kit, sequence (P10721 26-976): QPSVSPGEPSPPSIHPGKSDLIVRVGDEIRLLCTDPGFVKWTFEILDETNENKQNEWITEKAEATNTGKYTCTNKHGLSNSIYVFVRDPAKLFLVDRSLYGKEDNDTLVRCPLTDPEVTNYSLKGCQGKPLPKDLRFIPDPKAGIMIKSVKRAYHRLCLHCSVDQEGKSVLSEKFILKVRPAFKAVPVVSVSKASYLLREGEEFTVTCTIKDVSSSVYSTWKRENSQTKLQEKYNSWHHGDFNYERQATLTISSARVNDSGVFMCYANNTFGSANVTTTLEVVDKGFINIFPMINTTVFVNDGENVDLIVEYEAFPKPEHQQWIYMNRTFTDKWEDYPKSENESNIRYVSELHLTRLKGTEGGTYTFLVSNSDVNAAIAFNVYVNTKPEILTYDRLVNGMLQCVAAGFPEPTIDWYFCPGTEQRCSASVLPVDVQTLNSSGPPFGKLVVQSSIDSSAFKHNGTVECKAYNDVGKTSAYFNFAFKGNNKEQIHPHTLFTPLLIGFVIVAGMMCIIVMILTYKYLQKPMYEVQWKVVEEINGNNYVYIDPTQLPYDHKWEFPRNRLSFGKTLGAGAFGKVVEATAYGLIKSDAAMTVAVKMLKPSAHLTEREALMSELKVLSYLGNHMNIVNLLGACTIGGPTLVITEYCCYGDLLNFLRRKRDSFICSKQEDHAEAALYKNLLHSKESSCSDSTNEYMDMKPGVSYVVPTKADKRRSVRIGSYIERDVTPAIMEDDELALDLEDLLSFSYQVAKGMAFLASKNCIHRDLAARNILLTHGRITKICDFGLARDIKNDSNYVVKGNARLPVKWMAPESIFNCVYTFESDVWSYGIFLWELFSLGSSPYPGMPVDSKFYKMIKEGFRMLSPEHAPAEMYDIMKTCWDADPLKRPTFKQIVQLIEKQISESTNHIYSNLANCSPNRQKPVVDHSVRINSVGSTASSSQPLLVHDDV
FRK/PTK5, sequence (P42685 whole entry): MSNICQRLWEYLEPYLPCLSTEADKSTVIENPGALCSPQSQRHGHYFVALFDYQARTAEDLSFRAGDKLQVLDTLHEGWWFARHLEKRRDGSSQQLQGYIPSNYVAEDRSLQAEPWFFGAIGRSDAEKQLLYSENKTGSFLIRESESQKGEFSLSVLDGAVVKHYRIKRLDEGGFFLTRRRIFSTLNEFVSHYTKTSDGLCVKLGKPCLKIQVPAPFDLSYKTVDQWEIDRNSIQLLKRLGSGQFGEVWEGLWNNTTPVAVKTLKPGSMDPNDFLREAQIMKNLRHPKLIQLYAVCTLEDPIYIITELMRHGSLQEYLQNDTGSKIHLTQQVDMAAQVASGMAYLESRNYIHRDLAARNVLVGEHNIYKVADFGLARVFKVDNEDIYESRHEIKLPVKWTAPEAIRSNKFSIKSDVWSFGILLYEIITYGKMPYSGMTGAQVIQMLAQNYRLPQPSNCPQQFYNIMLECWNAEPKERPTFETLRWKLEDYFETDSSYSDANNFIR
LCK, sequence (P06239 whole entry): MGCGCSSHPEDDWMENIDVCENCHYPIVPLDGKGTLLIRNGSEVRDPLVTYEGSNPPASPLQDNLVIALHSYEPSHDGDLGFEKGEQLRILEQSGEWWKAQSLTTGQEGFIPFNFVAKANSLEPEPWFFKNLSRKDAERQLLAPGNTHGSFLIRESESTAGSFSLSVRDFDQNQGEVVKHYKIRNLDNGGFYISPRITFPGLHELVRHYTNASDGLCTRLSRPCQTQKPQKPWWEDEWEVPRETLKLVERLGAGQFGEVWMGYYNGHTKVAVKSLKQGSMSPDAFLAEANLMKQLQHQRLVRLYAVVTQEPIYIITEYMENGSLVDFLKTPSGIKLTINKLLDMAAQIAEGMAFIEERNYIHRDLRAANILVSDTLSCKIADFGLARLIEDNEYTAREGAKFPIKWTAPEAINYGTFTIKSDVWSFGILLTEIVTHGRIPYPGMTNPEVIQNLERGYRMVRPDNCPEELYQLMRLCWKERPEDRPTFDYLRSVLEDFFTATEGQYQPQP

Q: Which results are given for Cc1ccc(Nc2ncc3cc(-c4cc(NC(=O)c5cccc(C(F)(F)F)c5)ccc4C)ncc3n2)cn1 [Compound No. 4, N-(4-methyl-3-(2-((6-methylpyridin-3-yl)amino)pyrido[3,4-d]pyrimidin-6-yl)phenyl)-3-(trifluoromethyl)benzamide]?
A: inhibition at 1 µM [1]: ≥ 70%; inhibition at 1 µM [2]: ≥ 70%; inhibition at 1 µM [3]: ≥ 70%; inhibition at 1 µM [4]: ≥ 70%; inhibition at 1 µM [5]: ≥ 70%; inhibition at 1 µM [6]: ≥ 70%; inhibition at 1 µM [7]: ≥ 70%; inhibition at 1 µM [8]: ≥ 70%; inhibition at 1 µM [9]: ≥ 70%; inhibition at 1 µM [10]: ≥ 70%; inhibition at 1 µM [11]: ≥ 70%; inhibition at 1 µM [12]: ≥ 70%; inhibition at 1 µM [13]: ≥ 70%; inhibition at 1 µM [14]: ≥ 70%; IC50 [15]: < 100 nM; IC50 [16]: 100 to 1000 nM
